In the NIST ThermoML archive (doi:10.1016/j.fluid.2005.03.027) one finds Normal melting temperature data, which are given here for three molecules.

Structures are written as SMILES. Numbers after ± are expanded uncertainties.

The conditions of this data set: Crystal; visual observation.
As to `Cc1cc(C)cc(O)c1` [3,5-dimethylphenol], the Normal melting temperature is 63.77 ± 0.39 °C. As to `CN1CCCC1=O` [N-methylpyrrolidone], the Normal melting temperature was -23.47 ± 0.39 °C. In the case of `Oc1ccccc1` [phenol], the Normal melting temperature is 41.70 ± 0.39 °C.
